According to the SangsterLogP compilation:

Assay: method code TLC index, from DOI: 10.1016/0223-5234(96)88245-6
Conditions: pH 7.4
Compound `CCOC(=O)C1=C(C)NC(C)=C(C(=O)OCC)C1c1ccc(F)cc1` has a logD of 1.66.
Work on `COC(=O)C1=C(C)NC(C)=C(C(=O)OC)C1c1cc(F)cc(F)c1` yielded a logD of 1.15.
In the case of `COC(=O)C1=C(C)NC(C)=C(C(=O)OC)C1c1ccc(F)cc1`, the logD is reported as 0.82.
With `COC(=O)C1=C(C)NC(C)=C(C(=O)OC)C1c1ccc(F)c(Br)c1` the logD was 1.48.
`CCOC(=O)C1=C(C)NC(C)=C(C(=O)OCC)C1c1cccc([N+](=O)[O-])c1` showed a logD of 1.6.
For `CCOC(=O)C1=C(C)NC(C)=C(C(=O)OCC)C1c1cc(F)cc(F)c1`, the logD was 2.09.
In the case of `COC(=O)C1=C(C)NC(C)=C(C(=O)OCCOc2ccccc2)C1c1cc(F)cc(F)c1` (stereo not drawn), the logD is reported as 3.08.
In the case of `CCOC(=O)C1=C(C)NC(C)=C(C(=O)OC)C1c1cc(F)cc(F)c1` (stereo not drawn), the logD is reported as 1.46.
